In patent publication US12533340B2, “Treatment of autoimmune disease in a patient receiving additionally a beta-blocker” (NOVARTIS AG, priority 2015, dated 2026):

Experiments:
healthy volunteers [1] = test: Clinical trial: effect on heart rate (EmaxHR) from 12-lead Holter ECG recordings; assay type: in vivo, human; conditions: for mean EmaxHR (maximum change from baseline in time matched, hourly average HR): Day 10, monotherapy at steady state, siponimod 2 mg qd after titration or propranolol 80 mg LA qd, placebo 11.73 bpm
From the text: (§1) Healthy volunteers (men and women) aged between 18 and 55 years with a body mass index of 18-30 kg/m^2 were included in the study. Subjects were required to have an FEV1 of ≥90% of predicted normal, a systolic blood pressure (BP) of 90-140 mm Hg, a diastolic BP of 50-90 mm Hg and a pulse rate of 50-90 bpm. Women of childbearing potential, pregnant or lactating women, homozygous carriers for CYP2C9*3 genotype, smokers, those with current or medical history of cardiovascular disorders or bronchospastic disease were excluded from this study. At screening, a 24 h Holter recording was performed on all subjects to exclude those with any significant arrhythmia.
This was a double-blind, randomised, placebo-controlled study consisting of the following periods: screening (28 days), baseline evaluation (2 days), treatment (20 days) and study completion evaluation (approximately 10 days after the last drug administration; FIG. 1). Eligible subjects were domiciled for 22 days, starting approximately 36 h before dosing until 24 h post-dose after Day 20. The baseline evaluations were performed on Day −2 or Day −1. Subjects were randomised to one of the four treatment groups (A, B, C and D) in a ratio of 1:1:1:1. […] In Group A, treatment was initiated with the siponimod dose-titration regimen (Days 1-6) followed by siponimod 2 mg (Days 7-20). Siponimod was uptitrated by one administration of 0.25 mg siponimod on day 1, one administration of 0.25 mg siponimod on day 2, one administration of 0.5 mg siponimod on day 3, one administration of 0.75 mg siponimod on day 4, one administration of 1.25 mg siponimod on day 5 and one administration of 2 mg siponimod on day 6, followed by a steady dose of 2 mg siponimod qd thereafter. […] These subjects concomitantly received siponimod-placebo (Days 1-10), followed by the siponimod dose-titration regimen (Days 11-16) and siponimod 2 mg (Days 17-20). […]
(§2) The HR and bradyarrhythmias were evaluated from the 12-Lead Holter electrocardiogram (ECG) recordings. […] The hourly average HR in each post-dose hour was calculated from the 60 intervals of per minute HR data. […]

healthy volunteers [2] = test: Clinical trial: bradyarrhythmias (AVBs, sinus pauses) from 24 h post-dose Holter evaluation; assay type: in vivo, human
From the text: as §1
This was a double-blind, randomised, placebo-controlled study consisting of the following periods: screening (28 days), baseline evaluation (2 days), treatment (20 days) and study completion evaluation (approximately 10 days after the last drug administration; FIG. 1). Eligible subjects were domiciled for 22 days, starting approximately 36 h before dosing until 24 h post-dose after Day 20. […]
as §2
The cardiac rhythm was evaluated from the 24 h post-dose Holter evaluation as mentioned earlier. […]

[3] = deduced on the basis of previous reports (Legangneux 2013, Murdoch 1991); cited from earlier work

CC(C)NCC(O)COc1cccc2ccccc12 (stereo not drawn) [propranolol, reference compound]
mean EmaxHR (maximum change from baseline in time matched, hourly average HR) (healthy volunteers [1]): 17.85 bpm
episodes of Mobitz I AVB (healthy volunteers [2]; propranolol only treatment): Two

CCc1cc(/C(C)=N/OCc2ccc(C3CCCCC3)c(C(F)(F)F)c2)ccc1CN1CC(C(=O)O)C1 [siponimod, 1-{4-[1-((E)-4-cyclohexyl-3-trifluoromethyl-benzyloxyimino)-ethyl]-2-ethyl-benzyl}-azetidine-3-carboxylic acid]
mean EmaxHR (maximum change from baseline in time matched, hourly average HR) (healthy volunteers [1]): 16.79 bpm
mean difference in EmaxHR, siponimod alone versus propranolol alone (healthy volunteers [1]; Day 10, 95% CI -4.98, 2.87, P=0.595): −1.06 bpm
episodes of second-degree AVBs or SPs of >3 seconds duration (healthy volunteers [2]; 24 h Holter on the evaluation days): no episodes
time to reach a pharmacokinetic steady state [3]: approximately 10 days
